In BindingDB's records for doi:10.1016/s0028-3908(97)00039-7 (Roche Bioscience, 1997):
pKi: −log10 of the molar value. Where “and” joins values, the source holds several entries; their conditions need not be identical. Equal values may be shown once.

These molecules were tested against 5-hydroxytryptamine receptor 4 (Rattus norvegicus, UniProt Q62758).
Chain of 5-hydroxytryptamine receptor 4 (Q62758 whole entry): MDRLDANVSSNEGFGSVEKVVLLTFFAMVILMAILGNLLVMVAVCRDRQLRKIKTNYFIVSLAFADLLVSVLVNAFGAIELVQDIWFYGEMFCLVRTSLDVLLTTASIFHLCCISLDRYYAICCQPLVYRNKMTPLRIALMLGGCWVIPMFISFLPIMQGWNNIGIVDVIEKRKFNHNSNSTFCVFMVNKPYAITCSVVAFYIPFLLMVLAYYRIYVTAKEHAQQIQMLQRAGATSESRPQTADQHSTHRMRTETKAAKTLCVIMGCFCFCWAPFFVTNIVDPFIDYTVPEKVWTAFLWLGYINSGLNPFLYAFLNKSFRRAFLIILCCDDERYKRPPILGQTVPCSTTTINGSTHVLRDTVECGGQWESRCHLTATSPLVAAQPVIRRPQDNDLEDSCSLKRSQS

Row | SMILES | pKi
1 | CN1C2CCC1CC(OC(=O)c1c[nH]c3ccccc13)C2 (stereo not drawn) | 7.00 and 6.60 and 6.30
2 | CC(C)n1c(=O)n(C(=O)NC2CC3CCC(C2)N3C)c2ccccc21 (stereo not drawn) [BIMU 8] | 7.80 and 7.30 and 7.10
3 | CCCCN1CCC(COC(=O)c2cc(Cl)c(N)c3c2OCCO3)CC1 [CAS_121881] | 8.90 and 9.41 and 9.51
4 | COc1ccc2[nH]c(=O)n(C(=O)OC3CC4CCC(C3)N4C)c2c1 (stereo not drawn) [DAU 6285] | 7.10 and 7.20 and 6.80
5 | Cn1cc(C(=O)OCC2CCN(CCNS(C)(=O)=O)CC2)c2ccccc21 [GR 113808] | 8.50 and 8.70 and 8.40
6 | COc1cc(N)c(Cl)cc1C(=O)OCC1CCN(CCc2ccc3c(c2)OCCO3)CC1 [RS 57639] | 8.60 and 8.90
7 | CCN(CC)CCOC(=O)c1cc(Cl)c(N)cc1OC [SDZ-205557] | 7.70 and 7.60
8 | NCCc1c[nH]c2ccc(C(N)=O)cc12 [[3H]-5-carboxamidotryptamine] | 5.50 and 5.30
